{
  "source": "patent US20110207807A1",
  "about": "“NEW USE FOR HOMOISOFLAVONE OR A SALT THEREOF” (Catholic University Industry Academy Cooperation Foundation, priority 2008, published 2011)",
  "key": {"leukotriene C4": {"tested_on": "leukotriene C4", "assay": "Release of leukotriene C4 induced by PMA and A23187 in HMC-1 (enzyme immunoassay)", "format": "cell-based", "settings": "Homo sapiens, HMC1; HMC-1, homoisoflavanone 2 μg/mL or mizolastine 10 μg/mL, 50 nM PMA + 1 μM A23187, 21 hours (FIG. 6b)", "from_the_text": "(§1) Phorbol 12-myristate 13-acetate and A23187 lead to degranulation of human mast cells (HMC), causing the mast cells to release not only their histamine or serotonin but also newly produced inflammatory factors such as pro-inflammatory cytokines, prostaglandins and leukotrienes. It was investigated whether homoisoflavanone has anti-inflammatory effect in mast cells as in Examples 4 and 5. In order to investigate the effect of homoisoflavanone on the release of leukotriene induced by phorbol 12-myristate 13-acetate and A23187 in HMC-1, 1×10^6 HMC-1 cells were inoculated on a 100-mm culture dish and cultured in Iscove's modified Dulbecco's medium (IMDM, GIBCO) containing 10% FBS for 48 hours. Then, after treating with homoisoflavanone at 2 μg/mL or with mizolastine at 10 μg/mL for comparison for 1 hour, the cells were treated with 50 nM phorbol 12-myristate 13-acetate and 1 μM A23187 to induce release of leukotriene, and then further cultured for 21 hours. Then, the supernatant was collected and the quantity of released leukotriene B4 and C4 was measured using a leukotriene B4, C4 enzyme immunoassay kit (Sapphire Bioscience, Australia)."}, "leukotriene B4": {"tested_on": "leukotriene B4", "assay": "Release of leukotriene B4 induced by PMA and A23187 in HMC-1 (enzyme immunoassay)", "format": "cell-based, human", "from_the_text": "as §1"}},
  "data": [
    {"molecule": "CN(c1nccc(=O)[nH]1)C1CCN(c2nc3ccccc3n2Cc2ccc(F)cc2)CC1", "note": "[mizolastine, reference compound]", "values": [
      {"measurement": "inhibition at 10 µg/mL", "setting": "leukotriene C4", "result": "≥ 90", "unit": "%"},
      {"measurement": "leukotriene B4 release when treated alone, versus non-treated group", "setting": "leukotriene B4; HMC-1, homoisoflavanone 2 μg/mL or mizolastine 10 μg/mL alone, without PMA/A23187 (FIG. 6a)", "result": "no appreciable difference"},
      {"measurement": "inhibition at 10 µg/mL", "setting": "leukotriene B4; Homo sapiens, HMC1, HMC-1, homoisoflavanone 2 μg/mL or mizolastine 10 μg/mL, 50 nM PMA + 1 μM A23187, 21 hours (FIG. 6a)", "result": 20, "unit": "%"}
    ]}
  ]
}
